Assay results from US20150072935A1, “COMPOSITION AND EXTERNAL APPLICATION FOR ACCELERATION OF MUSCLE DIFFERENTIATION AND IMPROVING OF MUSCLE MASS” (NEOPHARM CO., LTD., priority 2013, published 2015).
Numbered stars: 1 amine (or outer) side, 2 acyl side, 3 side chain; on linkers, the order of the positions; unused ones are H or OH. Square brackets hold non-standard residues; d marks the D form. Peptide text beside a SMILES is read from it. * marks the point of attachment. ξ: configuration not given here. Biotin = O=C1N[C@H]2[C@H](CS[C@H]2CCCCC(=O)*)N1; X1 = O=C(C(CC1=NCNC1)N[*:1])[*:2]; ξW = NC(Cc1c[nH]c2ccccc12)C(=O)O; ξF = NC(Cc1ccccc1)C(=O)O; ξK = NCCCCC(N)C(=O)O; ξA = CC(N)C(=O)O

Legend:
[1] = test system: C2C12 myoblast cells; assay: Muscle differentiation promotion in C2C12 myoblast cells depending on differentiation time, western blotting; assay type: cell-based; settings: differentiation medium with 2% horse serum, 50 uM, after 1, 2 and 3 days of differentiation induction, western blotting (FIG. 2)
Protocol: Undifferentiated C2C12 myoblast cells were cultured in a dish having a diameter of 100 mm using a DMEM with 10% fetal bovine serum (FBS). When the cells covered about 70% of an area, the cells were seeded in a 6-well dish at 8×10^5/well and cultured until the cells covered 90% of an area. Thereafter, muscle differentiation was induced using a differentiation medium with 2% horse serum. In this case, the cells were treated with a myotide (Chemical Formula 2, Incospharm Corp.) composition (0.1% DMSO in phosphate buffer saline) of the present invention at a content of 50 uM. After 1, 2, and 3 days of differentiation induction, cell lysis was performed using a lysis buffer, and a degree of muscle differentiation was confirmed by western blotting.

[2] = test system: C2C12 myoblast cells; assay: Muscle differentiation promotion in C2C12 myoblast cells, western blotting of muscle proteins, concentration dependence; assay type: cell-based; settings: differentiation medium with 2% horse serum, 0, 10 and 100 uM, after 3 days of differentiation induction, western blotting (FIG. 1)
Protocol: Undifferentiated C2C12 myoblast cells were cultured in a dish having a diameter of 100 mm using a Dulbecco's modified Eagle's medium (DMEM) with 10% fetal bovine serum (FBS). When the cells covered about 70% of an area, the cells were seeded in a 6-well dish at 8×10^5/well and cultured until the cells covered 90% of an area. Thereafter, muscle differentiation was induced using a differentiation medium with 2% horse serum. In this case, the cells were treated with a myotide (Chemical Formula 2, Incospharm Corp.) composition (0.1% DMSO in phosphate buffer saline) of the present invention at contents of 0, 10, and 100 uM. The differentiation medium was changed into a new differentiation medium containing […] every 24 hours, and after 3 days of differentiation induction, muscles cell lysis was performed using a cell lysis buffer, followed by western blotting. In order to confirm a degree of muscle differentiation, protein expression amounts of myosin heavy chain I, caveolin-3, and myogenin, which are representative protein of muscles, were observed. […] Therefore, the composition according to the present invention promoted muscle differentiation.

In the case of `CC(NC(=O)C(Cc1c[nH]c2ccccc12)NC(=O)C(CC1=NCNC1)NC(=O)CCCC[C@@H]1SC[C@@H]2NC(=O)N[C@@H]21)C(=O)NC(Cc1c[nH]c2ccccc12)C(=O)NC(Cc1ccccc1)C(=O)NC(CCCCN)C(N)=O` (some centres unmarked) [myotide] (Biotin-[X1][ξW][ξA][ξW][ξF][ξK]-NH2), the “expression of muscle proteins (myosin heavy chain I, caveolin-3, and myogenin)” value [1] is reported as “increased” and the “expression of muscle proteins (myosin heavy chain I, caveolin-3, myogenin)” value [2] is reported as “concentration-dependently increased”.
